According to ChEMBL document CHEMBL3832541, “DailyMed|setid=33ddfdb1-b4bc-464d-a186-49c4b156279f | DOXORUBICIN HYDROCHLORIDE- doxorubicin hydrochloride injection, solution|Actavis Pharma, Inc”:
Where “and” joins values, the source holds several entries; their conditions need not be identical. Equal values may be shown once.

Experiments:
Type in all cases: ADME, organism-based
[1] = (§1) Evaluation of pharmacokinetic parameters for Doxorubicin hydrochloride following single intravenous administration of Doxorubicin hydrochloride solution to patients with various types of tumors.; settings: human, dosed compound id 8, dosed compound name DOXORUBICIN HYDROCHLORIDE, regimen Single dose, tissue Plasma, read-out: Protein binding (converted)
Homo sapiens [2] = test: as §1; settings: in vivo, iv, dosed compound id 8, dosed compound name DOXORUBICIN HYDROCHLORIDE, regimen Single dose, tissue Plasma
Homo sapiens [3] = test: Evaluation of pharmacokinetic parameters for Doxorubicin hydrochloride following multiple intravenous administration of Doxorubicin hydrochloride solution to children, adolescents and adults subjects; settings: in vivo, dose 10 to 75 mg/m2, dosed compound id 8, dosed compound name DOXORUBICIN HYDROCHLORIDE, gender male and female, regimen Multiple dose, tissue Plasma

- fraction unbound [1]: 0.25
- CL (Homo sapiens [2]; gender female): 433 mL/min/m2
- t1/2-terminal (Homo sapiens [2]; gender female): 35 h
- CL (Homo sapiens [2]; gender male): 1088 mL/min/m2
- t1/2-terminal (Homo sapiens [2]; gender male): 54 h
- t1/2-distribution (Homo sapiens [2]): 5 min
- t1/2-terminal (Homo sapiens [2]): 20 to 48 h
SMILES: COc1cccc2c1C(=O)c1c(O)c3c(c(O)c1C2=O)C[C@@](O)(C(=O)CO)C[C@@H]3O[C@H]1C[C@H](N)[C@H](O)[C@H](C)O1.Cl [DOXORUBICIN HYDROCHLORIDE]
- CL (Homo sapiens [3]): 1443 mL/min/m2 and 1540 mL/min/m2 and 813 mL/min/m2
